{
  "source": "ChEMBL document CHEMBL5360532",
  "about": "“Current scenario of quinolone hybrids with potential antibacterial activity against ESKAPE pathogens” (Eur J Med Chem, 2023)",
  "format_in_all_cases": "functional",
  "key": {"Escherichia coli [1]": {"test_system": "Escherichia coli", "experiment": "Antibacterial activity against Escherichia coli ATCC 25922 assessed as bacterial growth inhibition measured after 18 hrs by agar dilution assay"}, "Staphylococcus aureus [2]": {"test_system": "Staphylococcus aureus", "experiment": "Antibacterial activity against Staphylococcus aureus ATCC 25923 assessed as bacterial growth inhibition measured after 18 hrs by agar dilution assay"}, "Escherichia coli [3]": {"test_system": "Escherichia coli", "experiment": "Potency index, ratio of ciprofloxacin MIC to test compound MIC for antimicrobial activity against Escherichia coli assessed as bacterial growth inhibition by agar cup diffusion assay"}, "Staphylococcus aureus [4]": {"test_system": "Staphylococcus aureus", "experiment": "Antibacterial activity against Staphylococcus aureus assessed as bacterial growth inhibition by broth microdilution assay"}, "Pseudomonas aeruginosa": {"test_system": "Pseudomonas aeruginosa", "experiment": "Antibacterial activity against Pseudomonas aeruginosa assessed as bacterial growth inhibition by broth microdilution assay"}, "Staphylococcus aureus [5]": {"test_system": "Staphylococcus aureus", "experiment": "Antibacterial activity against clinical isolate methicillin resistant Staphylococcus aureus assessed as bacterial growth inhibition by microdilution assay"}, "Staphylococcus aureus [6]": {"test_system": "Staphylococcus aureus", "experiment": "Antibacterial activity against Staphylococcus aureus ATCC 25923 assessed as bacterial growth inhibition by microdilution assay"}, "Escherichia coli [7]": {"test_system": "Escherichia coli", "experiment": "[…] activity against Escherichia coli assessed as bacterial growth inhibition by broth dilution assay"}, "Escherichia coli [8]": {"test_system": "Escherichia coli", "experiment": "Antibacterial activity against Escherichia coli ATCC 8739 assessed as bacterial growth inhibition by two fold microdilution assay"}, "Klebsiella pneumoniae": {"test_system": "Klebsiella pneumoniae", "experiment": "Antibacterial activity against Klebsiella pneumoniae assessed as bacterial growth inhibition by two fold microdilution assay"}, "Staphylococcus aureus [9]": {"test_system": "Staphylococcus aureus", "experiment": "Antibacterial activity against Staphylococcus aureus ATCC 6538P assessed as bacterial growth inhibition by two fold microdilution assay"}, "Escherichia coli [10]": {"test_system": "Escherichia coli", "experiment": "Antibacterial activity against Escherichia coli assessed as bacterial growth inhibition by broth microdilution assay"}, "Staphylococcus aureus [11]": {"test_system": "Staphylococcus aureus", "experiment": "Antibacterial activity against Staphylococcus aureus assessed as bacterial growth inhibition by two fold microdilution assay"}, "Escherichia coli [12]": {"test_system": "Escherichia coli", "experiment": "Antibacterial activity against Escherichia coli assessed as bacterial growth inhibition by two fold microdilution assay"}, "Escherichia coli [13]": {"test_system": "Escherichia coli", "experiment": "Antibacterial activity against fluoroquinolone Escherichia coli assessed as bacterial growth inhibition by broth microdilution assay"}, "Enterococcus faecalis": {"test_system": "Enterococcus faecalis", "experiment": "Antibacterial activity against Enterococcus faecalis assessed as bacterial growth inhibition by broth microdilution assay"}, "Staphylococcus aureus [14]": {"test_system": "Staphylococcus aureus", "experiment": "Antibacterial activity against methicillin resistant Staphylococcus aureus ATCC 33591 assessed as bacterial growth inhibition measured after 16 to 18 hrs by serial dilution method", "conditions": "time 16-18 hrs"}},
  "data": [
    {"compound": "O=C(O)c1cn(C2CC2)c2cc(N3CCN(Cc4cn(-c5ccccc5)nn4)CC3)c(F)cc2c1=O", "values": [
      {"measurement": "MIC", "setting": "Escherichia coli [1]", "value": 0.12, "unit": "µg/mL"},
      {"measurement": "MIC", "setting": "Staphylococcus aureus [2]", "value": 0.12, "unit": "µg/mL"}
    ]},
    {"compound": "CCn1cc(C(=O)O)c(=O)c2cc(F)c(N3CCN(Cc4cn(-c5ccc([N+](=O)[O-])cc5)nn4)CC3)cc21", "values": [
      {"measurement": "MIC", "setting": "Escherichia coli [1]", "value": 0.12, "unit": "µg/mL"},
      {"measurement": "MIC", "setting": "Staphylococcus aureus [2]", "value": 0.12, "unit": "µg/mL"}
    ]},
    {"compound": "CCn1cc(C(=O)O)c(=O)c2cc(F)c(N3CCN(Cc4cn(-c5ccccc5)nn4)CC3)cc21", "values": [
      {"measurement": "MIC", "setting": "Escherichia coli [1]", "value": 0.12, "unit": "µg/mL"},
      {"measurement": "MIC", "setting": "Staphylococcus aureus [2]", "value": 0.12, "unit": "µg/mL"}
    ]},
    {"compound": "Cc1ccc(-n2cc(CN3CCN(c4cc5c(cc4F)c(=O)c(C(=O)O)cn5C4CC4)CC3)nn2)cc1", "values": [
      {"measurement": "MIC", "setting": "Escherichia coli [1]", "value": 0.12, "unit": "µg/mL"},
      {"measurement": "MIC", "setting": "Staphylococcus aureus [2]", "value": 0.12, "unit": "µg/mL"}
    ]},
    {"compound": "CCn1cc(C(=O)O)c(=O)c2cnc(N3CCN(Cc4cn(-c5ccc([N+](=O)[O-])cc5)nn4)CC3)nc21", "values": [
      {"measurement": "MIC", "setting": "Escherichia coli [1]", "value": 0.12, "unit": "µg/mL"},
      {"measurement": "MIC", "setting": "Staphylococcus aureus [2]", "value": 0.12, "unit": "µg/mL"}
    ]},
    {"compound": "CCn1cc(C(=O)O)c(=O)c2cnc(N3CCN(Cc4cn(-c5ccccc5)nn4)CC3)nc21", "values": [
      {"measurement": "MIC", "setting": "Escherichia coli [1]", "value": 0.12, "unit": "µg/mL"},
      {"measurement": "MIC", "setting": "Staphylococcus aureus [2]", "value": 0.12, "unit": "µg/mL"}
    ]},
    {"compound": "CCn1nnnc1SCCC(=O)N1CCN(c2cc3c(cc2F)c(=O)c(C(=O)O)cn3C2CC2)CC1", "values": [
      {"measurement": "Ratio", "setting": "Escherichia coli [3]", "value": 2}
    ]},
    {"compound": "COc1cc(-n2nnnc2SCCC(=O)N2CCN(c3cc4c(cc3F)c(=O)c(C(=O)O)cn4C3CC3)CC2)cc(OC)c1OC", "values": [
      {"measurement": "Ratio", "setting": "Escherichia coli [3]", "value": 2}
    ]},
    {"compound": "O=C(O)c1cn(C2CC2)c2cc(N3CCN(C(=O)CCSc4nnnn4-c4ccc(F)c(F)c4F)CC3)c(F)cc2c1=O", "values": [
      {"measurement": "Ratio", "setting": "Escherichia coli [3]", "value": 2}
    ]},
    {"compound": "O=C(O)c1cn(C2CC2)c2cc(N3CCN(C(=O)CCSc4nnnn4-c4ccc(C(F)(F)F)cc4)CC3)c(F)cc2c1=O", "values": [
      {"measurement": "Ratio", "setting": "Escherichia coli [3]", "value": 2}
    ]},
    {"compound": "O=C(O)c1cn(C2CC2)c2cc(N3CCN(C(=O)CCSc4nnnn4-c4ccccc4)CC3)c(F)cc2c1=O", "values": [
      {"measurement": "Ratio", "setting": "Escherichia coli [3]", "value": 2}
    ]},
    {"compound": "O=C(O)c1cn(C2CC2)c2cc(N3CCN(C(=O)CCSc4nnnn4-c4ccc(Br)cc4)CC3)c(F)cc2c1=O", "values": [
      {"measurement": "Ratio", "setting": "Escherichia coli [3]", "value": 2}
    ]},
    {"compound": "O=C(CSC(=S)N1CCN(c2cc3c(cc2F)c(=O)c(C(=O)O)cn3C2CC2)CC1)Nc1cccc(Cl)c1", "values": [
      {"measurement": "MIC", "setting": "Staphylococcus aureus [4]", "value": 0.024, "unit": "µg/mL"},
      {"measurement": "MIC", "setting": "Pseudomonas aeruginosa", "value": 0.024, "unit": "µg/mL"}
    ]},
    {"compound": "COc1c(N2C[C@H]3CCCN(S(=O)(=O)c4ccccc4)[C@H]3C2)c(F)cc2c(=O)c(C(=O)O)cn(C3CC3)c12", "values": [
      {"measurement": "MIC", "setting": "Staphylococcus aureus [5]", "value": "< 2.64", "unit": "µg/mL"},
      {"measurement": "MIC", "setting": "Staphylococcus aureus [6]", "value": "< 2.64", "unit": "µg/mL"}
    ]},
    {"compound": "CCn1cc(C(=O)O)c(=O)c2cnc(N3CCN(Cn4nc(-c5ccc(OC)cc5)n(-c5ccc(C(C)(C)C)cc5)c4=S)CC3)nc21", "values": [
      {"measurement": "MIC", "setting": "Escherichia coli [7]", "value": 0.98, "unit": "µg/mL"}
    ]},
    {"compound": "CCn1cc(C(=O)O)c(=O)c2cc(F)c(N3CCN(Cn4nc(-c5ccccc5O)n(-c5ccc(OC)cc5)c4=S)CC3)cc21", "values": [
      {"measurement": "MIC", "setting": "Escherichia coli [8]", "value": "≤ 0.125", "unit": "µg/mL"},
      {"measurement": "MIC", "setting": "Klebsiella pneumoniae", "value": "≤ 0.125", "unit": "µg/mL"},
      {"measurement": "MIC", "setting": "Staphylococcus aureus [9]", "value": "≤ 0.125", "unit": "µg/mL"}
    ]},
    {"compound": "CCn1cc(C(=O)O)c(=O)c2cc(F)c(N3CCN(Cn4nc(-c5ccco5)oc4=S)CC3)cc21", "values": [
      {"measurement": "MIC", "setting": "Staphylococcus aureus [4]", "value": "≤ 0.125", "unit": "µg/mL"},
      {"measurement": "MIC", "setting": "Pseudomonas aeruginosa", "value": "≤ 0.125", "unit": "µg/mL"},
      {"measurement": "MIC", "setting": "Escherichia coli [10]", "value": "≤ 0.125", "unit": "µg/mL"}
    ]},
    {"compound": "CCn1cc(C(=O)O)c(=O)c2cc(F)c(N3CCN(Cn4nc(-c5ccncc5)n(-c5ccc(OC)cc5)c4=S)CC3)cc21", "values": [
      {"measurement": "MIC", "setting": "Escherichia coli [8]", "value": "≤ 0.125", "unit": "µg/mL"},
      {"measurement": "MIC", "setting": "Klebsiella pneumoniae", "value": "≤ 0.125", "unit": "µg/mL"},
      {"measurement": "MIC", "setting": "Staphylococcus aureus [9]", "value": "≤ 0.125", "unit": "µg/mL"}
    ]},
    {"compound": "CCn1cc(C(=O)O)c(=O)c2cc(F)c(N3CCN(Cn4nc(Cn5nc(C)n(/N=C/c6ccccc6O)c5=O)n(-c5ccccc5)c4=O)CC3)cc21", "values": [
      {"measurement": "MIC", "setting": "Staphylococcus aureus [11]", "value": "< 28", "unit": "µg/mL"},
      {"measurement": "MIC", "setting": "Escherichia coli [12]", "value": "< 0.24", "unit": "µg/mL"},
      {"measurement": "MIC", "setting": "Klebsiella pneumoniae", "value": "< 0.24", "unit": "µg/mL"}
    ]},
    {"compound": "CCn1cc(C(=O)O)c(=O)c2cc(F)c(N3CCN(Cn4nc(-c5cnccn5)oc4=S)CC3)cc21", "values": [
      {"measurement": "MIC", "setting": "Staphylococcus aureus [4]", "value": "≤ 0.125", "unit": "µg/mL"},
      {"measurement": "MIC", "setting": "Pseudomonas aeruginosa", "value": "≤ 0.125", "unit": "µg/mL"},
      {"measurement": "MIC", "setting": "Escherichia coli [10]", "value": "≤ 0.125", "unit": "µg/mL"}
    ]},
    {"compound": "CCCCCOc1ccc(C2C(Cl)C(=O)N2c2cc3[nH]cc(C(=O)O)c(=O)c3cc2F)cc1", "note": "(stereo not drawn)", "values": [
      {"measurement": "MIC", "setting": "Escherichia coli [13]", "value": 0.02, "unit": "µg/mL"},
      {"measurement": "MIC", "setting": "Staphylococcus aureus [4]", "value": 0.02, "unit": "µg/mL"},
      {"measurement": "MIC", "setting": "Enterococcus faecalis", "value": 0.02, "unit": "µg/mL"},
      {"measurement": "MIC", "setting": "Escherichia coli [10]", "value": 0.02, "unit": "µg/mL"}
    ]},
    {"compound": "Cc1ccc(-c2ccnc(Nc3ccc4c(=O)c(C(=O)O)cn(C5CC5)c4c3)n2)cc1C", "values": [
      {"measurement": "MIC", "setting": "Staphylococcus aureus [14]", "value": 0.38, "unit": "µg/mL"}
    ]}
  ]
}
